Reference: patent US20200000834A1, “POLYPHENOL GLYCOSIDE-CONTAINING COMPOSITION” (SUNSTAR INC., priority 2018, published 2020)

Key:
[1] = tested on: AMPK; conditions: known as; cited from earlier work
[2] = tested on: ACC (acetyl-CoA carboxylase); experiment: ACC phosphorylation (pACC/tACC) by western blotting in C2C12 myotubes; assay type: cell-based, mouse; conditions: single use or combination in a specific mass ratio
Method: The resultant was used in the following experiment. Since trifolin and astragalin have the same molecular weights, their concentration ratios are the same as the mass ratios. A medium without any addition was used as a negative control, and a medium containing AICAR (final concentration: 2 mM) was used as a positive control. AICAR is a substance that is metabolized to an analog of AMP when taken in a cell.
A mouse skeletal myotube cell line (C2C12) was inoculated in a 6-well cell culture plate. The cell line was cultured in a DMEM medium containing 10% fetal bovine serum and a 1% antibacterial agent at 37° C. in the presence of 5% carbon dioxide for 3 days. […] The protein concentration of each supernatant was measured. […]
After SDS-PAGE, the protein was transferred to a PVDF membrane, and blocking was performed. […] After sufficient washing, chemiluminescence (band) on the membrane was detected using a CCD camera imager (produced by GE Healthcare) (FIG. 1). The band intensity was quantified using image J (NIH). The degree of the activity (i.e., “phosphorylated AMPK/total AMPK (pAMPK/tAMPK)” or “phosphorylated ACC/total ACC (pACC/tACC)”) was expressed as a relative value with the value of the negative control being defined as 1 (FIG. 2a and FIG. 2b).

Row | Compound | AMPK activation in skeletal muscle [1] | ACC phosphorylation promotion (ACC inactivation promotion) effects [2]
1 | NC(=O)c1ncn([C@@H]2O[C@H](CO)[C@@H](O)[C@H]2O)c1N [AICAR] | significantly activating AMPK | –
2 | O=c1c(O[C@@H]2O[C@H](CO)[C@H](O)[C@H](O)[C@H]2O)c(-c2ccc(O)cc2)oc2cc(O)cc(O)c12 [trifolin, kaempferol-3-O-galactoside] | – | almost no effects
